Like-named read-outs stand apart in the source and are kept apart here.
How the values were obtained:
[1] = cited from earlier work
[2] = cited from earlier work; remark: listed apart in the source
[3] = Observed Kp,uu,brain and Kp,uu,CSF in monkeys; settings: cynomolgus monkey, intravenous
Method: Monkey experiments were conducted internally or at the Drug Safety Research Laboratories in Shin Nippon Biomedical Laboratories via consignment to Axcelead Drug Discovery Partners. […] Detailed dosage regimen for each compound is summarized in Supplemental Table 3. […] Each cassette was assigned to a separate group of monkeys. The vehicle was saline or a mixture of dimethylacetamide and 1,3-butanediol (1:1, v/v). At the end of the 6-h infusion or 1 h after intravenous bolus administration, the monkeys were anesthetized, and whole blood, CSF, and whole brain were collected. Blood was collected using the anticoagulant, heparin sodium, and immediately centrifuged; the plasma was transferred to polypropylene tubes. Then, ketamine hydrochloride (50 mg/mL; 0.2 mL/kg; 10 mg/kg) was intramuscularly administered. CSF was collected after lumbar puncture using a spinal needle (22–25G) and a syringe pre-wetted with 10% CHAPS solution to prevent adsorption of compounds to all the equipment during pretreatment. CSF samples were immediately centrifuged, and the supernatant layers were transferred to polypropylene tubes. […] After collecting the cerebellum, hippocampus, and cerebral cortex from the whole brain, these were washed with cold saline, weighed, and homogenized immediately in 4 volumes of ice-cold 100 mmol/L sodium phosphate buffer. All samples were stored at –80°C until analysis by LC-MS/MS. Each sample (50 μL) was mixed with the working solution (the mixture of dimethyl sulfoxide and acetonitrile (2:8, v/v)), and protein was precipitated by the addition of 150 μL acetonitrile containing the internal standards (5 ng/mL alprenolol and diclofenac). After centrifugation at 5,250 rpm and 4°C for 5 min, the supernatant (150 μL) was transferred to a polypropylene 96-well plate (Corning; Corning, NY, USA) and completely evaporated under a gentle stream of N2. The residue was reconstituted in dilution solution (mobile phase A/B (7:3, v/v)), and the supernatant was analyzed by LC-MS/MS.
Each sample (50 μL) was mixed with the working solution (the mixture of dimethyl sulfoxide and acetonitrile (2:8, v/v)), and the protein was precipitated by adding 150 μL acetonitrile containing internal standards (5 ng/mL alprenolol and diclofenac). After centrifugation at 5250 rpm and 4°C for 5 min, the supernatant (150 μL) was transferred to a polypropylene 96-well plate (Corning) and completely evaporated under a gentle stream of N2. The residue was reconstituted in mobile phase A/B (7:3, v/v)), and the supernatant was analyzed by LC-MS/MS. API5000 and QTRAP5500 (AB SCIEX, Framingham, MA, USA) equipped with Ultra-Fast Liquid Chromatography (Shimadzu, Kyoto, Japan) were used for determination of drug concentrations. Reversed-phase chromatography was performed using Shim-pack XR ODS (2.2 μm, 2.0×30 mm). Mobile phase A consisted of 10 mM ammonium formate with 0.2% formic acid, and mobile phase B contained acetonitrile with 0.2% formic acid. […] The mass spectrometer was operated in the positive ionization mode with multiple reaction monitoring (MRM). The MRM parameters (Q1 ion, Q3 ion, DP, EP, CE, and CXP) for monitoring the compounds are shown in Supplemental Table 4. Data acquisition and processing were performed using Analyst 1.6.2 (AB SCIEX, Framingham, MA, USA).
To perform correlation analyses between the observed Kp,uu,brain and Kp,uu,CSF, and the model-based prediction of Kp,uu,brain and Kp,uu,CSF, data from literature information were integrated into the internally obtained data for these assessments (Supplemental Table 2) ([17],[22]–[24],[27]–[33]). When only the total concentrations in plasma, CSF, and brain were available, the total concentration ratio in plasma to CSF or brain (Kp,CSF or Kp,brain, respectively) was estimated, followed by calculation of Kp,uu,CSF or Kp,uu,brain based on Eqs.

BCRP = molecular target: T1, BCRP (Homo sapiens, UniProt Q9UNQ0); assay: Transcellular transport across MDCK-BCRP cell monolayers (efflux ratio); settings: dog, pH 7.4
T1 sequence (Q9UNQ0 1-655): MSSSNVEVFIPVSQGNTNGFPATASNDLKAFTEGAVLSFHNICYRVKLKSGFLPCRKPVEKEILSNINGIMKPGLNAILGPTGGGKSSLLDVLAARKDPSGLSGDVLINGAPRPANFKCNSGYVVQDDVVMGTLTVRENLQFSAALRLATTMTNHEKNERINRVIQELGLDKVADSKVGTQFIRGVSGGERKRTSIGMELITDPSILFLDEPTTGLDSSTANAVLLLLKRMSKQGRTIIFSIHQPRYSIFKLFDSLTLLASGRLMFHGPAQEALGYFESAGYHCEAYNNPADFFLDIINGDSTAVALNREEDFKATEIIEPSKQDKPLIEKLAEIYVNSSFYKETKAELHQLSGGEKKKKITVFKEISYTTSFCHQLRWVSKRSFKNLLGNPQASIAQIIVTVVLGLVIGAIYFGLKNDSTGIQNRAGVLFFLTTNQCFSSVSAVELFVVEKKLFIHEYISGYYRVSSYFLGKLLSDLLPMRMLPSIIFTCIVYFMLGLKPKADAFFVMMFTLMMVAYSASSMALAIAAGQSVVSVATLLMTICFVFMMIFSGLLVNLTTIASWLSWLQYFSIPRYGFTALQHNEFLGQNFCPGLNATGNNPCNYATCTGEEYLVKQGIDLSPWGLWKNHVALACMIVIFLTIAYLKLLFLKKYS
Method: (§1) To the compounds available internally, in vitro efflux ratios for MDR1 and BCRP were determined by the following procedure (Supplemental Table 2). Test compound stock solutions in dimethyl sulfoxide (DMSO) were diluted in transport buffer (Hanks’ balanced salt solution (HBSS) with 10 mM HEPES, pH 7.4) to a concentration of 1 μM (DMSO < 1%) and applied to the apical or basolateral side of a cell monolayer derived from Madin-Darby canine kidney (MDCK)-MDR1 and MDCK-BCRP cells. Permeation of the test compounds from apical to basolateral (A to B) direction or B to A direction was measured in duplicate. The plate was incubated for 1 h in a CO2 incubator at 37±1°C with 5% CO2 at saturated humidity without shaking. In addition, the efflux ratio of each compound was also determined. Test and reference compounds were quantified by LC-MS/MS analysis based on the peak area ratio of analyte/internal standard.
(§2) The apparent permeability coefficient Papp (cm/s) was calculated by using Eq. 1: 1 Papp=dCr/dt×Vr/A×C0 where dCr/dt is the cumulative concentration of the compound in the receiver chamber as a function of time (μM/s); Vr is the volume of the solution in the receiver chamber (0.075 mL on the apical side, 0.25 mL on the basolateral side); A is the surface area for transport, i.e., 0.0804 cm^2 for the area of the monolayer; and C0 is the initial concentration (μM) in the donor chamber.
(§3) The efflux ratio was calculated using Eq. 2: 2 Efflux ratio=Papp,BtoA/Papp,AtoB

MDR1 = MDR1 (Homo sapiens, UniProt P08183); assay: in vitro; settings: dog, MDCK-MDR1, pH 7.4
Sequence of MDR1 (P08183 whole entry): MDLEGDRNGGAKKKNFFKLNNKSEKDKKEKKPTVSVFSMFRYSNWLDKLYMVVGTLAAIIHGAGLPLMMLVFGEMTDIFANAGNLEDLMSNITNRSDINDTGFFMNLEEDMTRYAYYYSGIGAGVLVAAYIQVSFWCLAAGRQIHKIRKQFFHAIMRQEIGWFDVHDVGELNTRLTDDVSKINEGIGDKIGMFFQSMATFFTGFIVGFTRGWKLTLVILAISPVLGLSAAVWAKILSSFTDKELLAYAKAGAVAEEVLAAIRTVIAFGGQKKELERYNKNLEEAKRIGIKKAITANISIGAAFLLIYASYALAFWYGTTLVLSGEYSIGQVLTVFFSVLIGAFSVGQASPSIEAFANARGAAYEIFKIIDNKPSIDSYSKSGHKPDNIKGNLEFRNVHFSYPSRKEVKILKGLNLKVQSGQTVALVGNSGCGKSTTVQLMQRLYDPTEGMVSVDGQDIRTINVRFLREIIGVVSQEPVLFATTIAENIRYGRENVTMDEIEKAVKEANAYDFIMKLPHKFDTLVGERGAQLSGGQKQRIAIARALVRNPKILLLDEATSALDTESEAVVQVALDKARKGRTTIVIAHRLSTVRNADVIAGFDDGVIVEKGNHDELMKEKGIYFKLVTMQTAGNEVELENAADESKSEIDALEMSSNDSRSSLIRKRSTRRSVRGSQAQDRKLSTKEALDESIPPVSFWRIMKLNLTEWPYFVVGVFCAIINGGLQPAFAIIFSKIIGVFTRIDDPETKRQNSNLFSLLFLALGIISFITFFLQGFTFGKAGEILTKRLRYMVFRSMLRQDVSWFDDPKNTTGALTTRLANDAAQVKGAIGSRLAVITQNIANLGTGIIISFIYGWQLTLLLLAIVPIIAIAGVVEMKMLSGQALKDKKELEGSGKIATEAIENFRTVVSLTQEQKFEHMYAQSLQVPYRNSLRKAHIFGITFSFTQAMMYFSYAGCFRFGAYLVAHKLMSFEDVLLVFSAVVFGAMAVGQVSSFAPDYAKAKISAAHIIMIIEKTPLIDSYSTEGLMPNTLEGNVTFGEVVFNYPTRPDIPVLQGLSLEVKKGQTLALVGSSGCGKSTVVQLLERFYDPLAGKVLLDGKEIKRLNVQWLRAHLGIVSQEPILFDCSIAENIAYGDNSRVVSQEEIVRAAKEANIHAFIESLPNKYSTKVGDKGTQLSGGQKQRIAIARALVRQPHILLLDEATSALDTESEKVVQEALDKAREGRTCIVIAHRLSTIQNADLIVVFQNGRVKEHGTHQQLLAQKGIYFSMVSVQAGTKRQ
Method: as §1, §2, §3

SMILES	Kp,uu,CSF Rat ([1]; *4 ref Friden et al. (21))	Kp,uu,CSF Human ([2]; *4 ref Friden et al. (21))	Kp,uu,brain Rat ([1]; *4 ref Friden et al. (21))	also measured
CN(C)CCC=C1c2ccccc2CCc2ccccc21 [Amitriptyline]	0.17	0.18	–	–
NCC(CC(=O)O)c1ccc(Cl)cc1 (stereo not shown) [Baclofen]	0.027	0.17	0.02	Kp uu at 6 h ([3]; CSF (lumbar) / plasma): 0.03; Kp uu at 6 h ([3]; brain / plasma): 0.037
CO/N=C(\C(=O)N[C@@H]1C(=O)N2C(C(=O)O)=C(COC(C)=O)CS[C@H]12)c1csc(N)n1 [Cefotaxime]	–	0.17	–	Kp,uu,brain Human ([2]; *4 ref Friden et al. (21)): 0.007
CN(C)CCCC1(c2ccc(F)cc2)OCc2cc(C#N)ccc21 (stereo not shown) [Citalopram]	–	–	–	Kp,uu,brain Rat ([1]; *3 ref Summerfield et al. (25)): 0.623; Kp,uu,CSF Rat ([1]; *7 ref Kodaira et al. (20)): 0.667; Kp,uu,brain Rat ([1]; *7 ref Kodaira et al. (20)): 0.494; Kp,uu,brain Human ([2]; *3 ref Summerfield et al. (25)): 0.347
COc1ccc2c3c1O[C@H]1[C@@H](O)C=C[C@H]4[C@@H](C2)N(C)CC[C@@]341 [Codeine]	–	–	–	Kp,uu,CSF Rat ([1]; in vivo): 0.54; Kp,uu,brain Rat ([1]; in vivo): 0.89; Kp,uu,CSF Human ([2]; in vivo): 0.79
CC(C)Nc1cccnc1N1CCN(C(=O)c2cc3cc(NS(C)(=O)=O)ccc3[nH]2)CC1 [Delavirdine]	0.051	0.23	0.043	–
CCC(C(N)=O)(C(N)=O)c1ccccc1 [Ethyl-phenylmalonamide]	1.4	–	1.250	–
COc1cc([C@@H]2c3cc4c(cc3[C@@H](O[C@@H]3O[C@@H]5CO[C@@H](C)O[C@H]5[C@H](O)[C@H]3O)[C@H]3COC(=O)[C@H]23)OCO4)cc(OC)c1O [Etoposide]	–	–	–	efflux ratio at 1 h, 1 μM (BCRP): 3.7; efflux ratio at 1 h, 1 μM (MDR1): 6.1
CNCCC(Oc1ccc(C(F)(F)F)cc1)c1ccccc1 (stereo not shown) [Fluoxetine]	–	–	–	Kp,uu,brain Rat ([1]; *3 ref Summerfield et al. (25)): 2.143; Kp,uu,brain Human ([2]; *3 ref Summerfield et al. (25)): 0.53
NCC1(CC(=O)O)CCCCC1 [Gabapentin]	0.067	0.16	0.140	Kp,uu,brain Human ([2]; *4 ref Friden et al. (21)): 0.16
C[C@H]1COc2c(N3CCN(C)CC3)c(F)cc3c(=O)c(C(=O)O)cn1c23 [Levofloxacin]	0.19	0.18	0.120	–
CN1CC[C@]23c4c5ccc(O[C@@H]6O[C@H](C(=O)O)[C@@H](O)[C@H](O)[C@H]6O)c4O[C@H]2[C@@H](O)C=C[C@H]3[C@H]1C5 [M3G]	0.049	0.081	0.011	–
CN1CC[C@]23c4c5ccc(O)c4O[C@H]2[C@@H](O[C@@H]2O[C@H](C(=O)O)[C@@H](O)[C@H](O)[C@H]2O)C=C[C@H]3[C@H]1C5 [M6G]	0.017	0.1	0.008	–
CN1CCN2c3ncccc3Cc3ccccc3C2C1 (stereo not shown) [Mirtazapine]	–	–	–	Kp,uu,brain Rat ([1]; *3 ref Summerfield et al. (25)): 1.611; Kp,uu,brain Human ([2]; *3 ref Summerfield et al. (25)): 0.79

Reference: publication PMC8175309, “Translational CNS Steady-State Drug Disposition Model in Rats, Monkeys, and Humans for Quantitative Prediction of Brain-to-Plasma and Cerebrospinal Fluid-to-Plasma Unbound Concentration Ratios” (The AAPS Journal, 2021)
